Test results published in the supplement of paper PMC10290057.

Assays:
HCT116 [1] = experiment: AC50 cell viability (CellTiter-Glo); higher = less potent; settings: 48 h
HCT116 [2] = experiment: efficacy (fitted maximal change in viability relative to DMSO control); higher = less cytotoxic (negative = loss of viability); settings: 48 h
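For AC50 cell viability (CellTiter-Glo) in this document: HCT116 colorectal carcinoma cells screened at five concentrations per compound, luminescent viability scaled between DMSO wells and empty wells on each plate, curves fitted per compound.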
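For efficacy (fitted maximal change in viability relative to DMSO control) in this document: Luminescence-based viability readout, five doses per compound, normalized against on-plate DMSO and empty-well controls, followed by dose-response curve fitting for every drug.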

Compound | AC50 cell viability (HCT116 [1]) [µM] | efficacy (HCT116 [2]) [%]
COc1ccc(Cn2ccc3ccc(C(=O)NO)cc32)cc1 | 16.6 | -71.9
COC(=O)c1ccc([C@H]2c3[nH]c4ccccc4c3C[C@H](C(=O)OC)N2C(=O)CCl)cc1 [RSL3] | 11.8 | -110
NC(=O)Nc1cc(-c2cccc(F)c2)sc1C(=O)N[C@H]1CCCNC1 [AZD-7762] | 0.833 | -101
CC(C)[C@]12O[C@H]1[C@@H]3O[C@@]34[C@@]5(C)CC\C6=C(COC6=O)/[C@@H]5C[C@@H]7O[C@]47[C@@H]2O [Triptolide] | 0.0235 | -52.7
COc1cc2ncn(-c3cc(OCc4ccccc4C(F)(F)F)c(C(N)=O)s3)c2cc1OC | 0.934 | -78.4
CN1CCC(C1CO)C2=C(O)C=C(O)C3=C2O\C(=C/C3=O)C4=CC=CC=C4Cl (stereo unspecified) [Riviciclib (P276-00)] | 0.372 | -73.4
CCc1nc(N)nc(N)c1-c1ccc(Cl)cc1 [Pyrimethamine] | 3.32 | -88.5
CC(C)(C)c1cc(C=C(C#N)C#N)cc(Br)c1O [AG-1024] | 26.3 | -86.1
CC(=O)N1c2ccc(-c3ccc(C(=O)O)cc3)cc2[C@H](Nc2ccc(Cl)cc2)C[C@@H]1C | 0.833 | -90.5
C#Cc1cccc(Nc2ncnc3cc(OCCOC)c(OCCO)cc23)c1 [OSI-420] | 6.61 | -76.6
NC(=O)c1cnc2[nH]ccc2c1NC1C2CC3C[C@H]1CC(O)(C3)C2 (stereo partly specified) [Peficitinib] | 7.42 | -67.2
NC\1=N\C(=O)N(\C=N1)[C@H]2C[C@H](O)[C@@H](CO)O2 [Decitabine] | 9.34 | -42.1
CC1Oc2cc(cnc2N)-c2c(nn(C)c2C#N)CN(C)C(=O)c2ccc(F)cc21 (stereo unspecified) [Lorlatinib] | 14.8 | -46.2
NC(=O)c1ccc2nc(-c3ccc(C4(N)CCC4)cc3)c(-c3ccccc3)n2n1 | 20.9 | -103
OCCn1cc(-c2ccc3c(c2)CC/C3=N\O)c(-c2ccncc2)n1 | 4.68 | -55.7
O=C(NO)c1cnc(NC2(c3ccccc3)CC2)nc1 [ACY-738] | 3.32 | -79.1
N[S+](=O)([O-])c1cccc2c1C(=O)c1cccc(O)c1C2=O [LLL-12] | 0.833 | -88
CN1CCN(Cc2ccc(NC(=O)Nc3ccc(Oc4cc(NC(=O)C5CC5)ncn4)cc3)cc2C(F)(F)F)CC1 [WS-3] | 0.0934 | -73.9
c1ccc2c(CCNc3ccc(Nc4ccncc4)cc3)c[nH]c2c1 [Serdemetan] | 5.9 | -89.6
O=C(O)c1ccc(-n2nc(-c3ccccc3O)nc2-c2ccccc2O)cc1 [Deferasirox] | 13.2 | -92.9
CN1\C=N/C2=CC=C(NC3=CC(=CC=C3C)NC(=O)C4=CC(=CC=C4)C(C)(C)C#N)C=C2C1=O [AZ-628] | 0.332 | -50.6
CO[C@H]1C[C@@H]2CC[C@@H](C)[C@@](O)(O2)C(=O)C(=O)N2CCCC[C@H]2C(=O)O[C@H]([C@H](C)C[C@@H]2CC[C@@H](OP(C)(C)=O)[C@H](OC)C2)CC(=O)[C@H](C)/C=C(\C)[C@@H](O)[C@@H](OC)C(=O)[C@H](C)C[C@H](C)/C=C/C=C/C=C/1C [Ridaforolimus] | 20.9 | -48.8

Compound | AC50 cell viability (HCT116 [1]) [µM] | efficacy (HCT116 [2]) [%]
COc1ccc(CNC(=O)Nc2ncc([N+](=O)[O-])s2)cc1 | 20.9 | -96.6
CO[C@@H]1[C@@H](O)[C@H](O)[C@@H](n2c3c(Cl)cccc3c3c4c(c5c6cccc(Cl)c6[nH]c5c32)C(=O)NC4=O)O[C@H]1CO [Rebeccamycin] | 0.934 | -88.9
COc1cc(F)ccc1-c1ncnc(Nc2cccc(C[S+](C)(=N)[O-])c2)n1 (stereo unspecified) [Atuveciclib] | 0.468 | -68
Cc1cnc(-c2ccccc2C(C)C)nc1NCc1ccc(-n2ccnn2)cc1 [ML323] | 0.118 | -34.2
c1ccc(-c2oc3ncnc(NC[C@@H]4CCCO4)c3c2-c2ccccc2)cc1 [AIM-100] | 9.34 | -69.3
CCC[C@@H](C=O)NC(=O)[C@H](CC(C)C)NC(=O)[C@H](CC(C)C)NC(=O)OCc1ccccc1 [MG-115] | 0.661 | -93.3
COc1ccccc1N1CCN(CCN(C(=O)C2CCCCC2)c2ccccn2)CC1 | 13.2 | -31.7
Cc1cc(Nc2cc(NC(=O)c3c(Cl)cccc3Cl)ccn2)nc(N)n1 [RO495] | 1.18 | -74.4
CCNC(=O)C[C@@H]1\N=C(C2=CC=C(Cl)C=C2)/C3=C(C=CC(=C3)OC)[N]4C(=NN=C14)C [I-BET762] | 2.63 | -67
NC1=NC=C(C=C1)C2=CC=C3N=CC\4=C(N(C(=O)\C=C4)C5=CC(=CC=C5)C(F)(F)F)C3=C2 [Torin-2] | 0.166 | -96.6
COc1ncc(-c2ccc3nccc(-c4ccnnc4)c3c2)cc1N[S+](=O)([O-])c1ccc(F)cc1F | 0.105 | -74.6
O=C(NC1CC1)c1cccc(-c2ccc3c(NC(=O)C4CC4)n[nH]c3c2)c1 | 9.34 | -52.3
Cc1cc(Nc2cc(N3CCN(C)CC3)nc(/C=C/c3ccccc3)n2)n[nH]1 | 5.9 | -99.9
CC(C)(O)CC(=O)NCCn1ccc2ncnc(Nc3ccc(Oc4cccc(C(F)(F)F)c4)c(Cl)c3)c21 [TAK-285] | 16.6 | -101
COc1cc(OC)cc(N2CCN(C(=O)Nc3nc4cc(F)ccc4nc3OC)CC2)c1 [RX-5902 (SUPINOXIN)] | 2.63 | -60
O=C(O)c1ccc2cc(-c3ccc(O)c(C45CC6CC(CC(C6)C4)C5)c3)ccc2c1 [AHPN] | 2.95 | -88.2
COC1=CC=C2/C3=N/CCN3\C(=N/C2=C1OC)NC(=O)C4=CC=CN=C4 [PIK-90] | 0.263 | -37.1
C/C(=N\NC(=S)N1CCC1)c1ccccn1 | 0.0295 | -85.2
COc1ccc2c(c1OC)C(=O)O[C@H]2[C@H]1c2c(cc3c(c2OC)OCO3)CCN1C [Noscapine] | 14.8 | -55.1
COc1cc2ncnc(Oc3cccc(NC(=O)Nc4cc(C(C)(C)C(F)(F)F)on4)c3)c2cc1OC | 3.72 | -66.5
O=c1[nH]c2ccccc2n1C1CCN(Cc2ccc(-c3nc4cc5nc[nH]c5cc4nc3-c3ccccc3)cc2)CC1 [AKT Inhibitor VIII] | 16.6 | -84.5
